From ChEMBL document CHEMBL1201862, “PubChem BioAssay data set” (2004)
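Protocol summary: plate cells (96-well), add compound at 5 concentrations, incubate 48 h, interpolate endpoints linearly. Here, GI50 denotes the concentration required for 50% inhibition of growth.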 Activity calls are given as the source filed them. Cut-off read from the data, not from the text of the source: active = GI50 up to about 1.1 µM and inactive = higher.

Columns and labels:
Assay in all cases: NCI-60 cell line screen, 48 h
[1] = system: HL-60
[2] = system: SNB-78
[3] = system: OVCAR-4
[4] = system: LOX IMVI
[5] = system: ACHN
[6] = system: NCI-H226
[7] = system: SF-539
[8] = system: UACC-62
[9] = system: Malme-3M
[10] = system: DLD-1
[11] = system: HCC 2998
[12] = system: EKVX
[13] = system: HOP-92
[14] = system: SR
[15] = system: RXF 393
[16] = system: NCI/ADR-RES
[17] = system: MCF7
[18] = system: MDA-N
[19] = system: PC-3
[20] = system: T47D

SMILES | GI50 [1] | GI50 [2] | GI50 [3] | GI50 [4] | GI50 [5] | GI50 [6] | GI50 [7] | GI50 [8] | GI50 [9] | GI50 [10] | GI50 [11] | GI50 [12] | GI50 [13] | GI50 [14] | GI50 [15] | GI50 [16] | GI50 [17] | GI50 [18] | GI50 [19] | GI50 [20]
NC(=O)c1csc(C2OC(COP(=O)(O)CP(=O)(O)OCC3OC(n4cnc5c(N)ncnc54)C(O)C3O)C(O)C2O)n1 (stereo unspecified) | > 100 µM (inactive) | > 100 µM (inactive) | > 100 µM (inactive) | 97.1 µM (inactive) | > 100 µM (inactive) | > 100 µM (inactive) | > 100 µM (inactive) | > 100 µM (inactive) | > 100 µM (inactive) | > 100 µM (inactive) | > 100 µM (inactive) | > 100 µM (inactive) | > 100 µM (inactive) | – | – | – | – | – | – | –
COc1ccc(C2N(NC(=O)c3ccncc3)C(=O)CS2(=O)=O)cc1F (stereo unspecified) | > 100 µM (inactive) | > 100 µM (inactive) | > 100 µM (inactive) | 60.4 µM (inactive) | > 100 µM (inactive) | > 100 µM (inactive) | – | – | > 100 µM (inactive) | > 100 µM (inactive) | > 100 µM (inactive) | – | > 100 µM (inactive) | > 100 µM (inactive) | > 100 µM (inactive) | – | – | – | – | –
CC12CCCCC1C(=O)C2(Cl)Cl (stereo unspecified) | 1.76 µM (inactive) | 4.44 µM (inactive) | 3.49 µM (inactive) | 2.64 µM (inactive) | 2.51 µM (inactive) | – | 2.17 µM (inactive) | 2.2 µM (inactive) | 1.4 µM (inactive) | 1.97 µM (inactive) | 1.79 µM (inactive) | 2.76 µM (inactive) | 1.69 µM (inactive) | – | 3.72 µM (inactive) | – | – | – | – | –
COC1CC(OC)C2OC(c3ccccc3)OCC2O1 (stereo unspecified) | > 100 µM (inactive) | > 100 µM (inactive) | – | > 100 µM (inactive) | > 100 µM (inactive) | – | > 100 µM (inactive) | > 100 µM (inactive) | > 100 µM (inactive) | > 100 µM (inactive) | > 100 µM (inactive) | > 100 µM (inactive) | – | > 100 µM (inactive) | > 100 µM (inactive) | – | – | – | – | –
Cn1ncc2cc3c(Nc4ccc(Cl)cc4)cccc3nc21 | 11 µM (inactive) | 34 µM (inactive) | 11.8 µM (inactive) | 14.9 µM (inactive) | 15 µM (inactive) | – | – | 15.1 µM (inactive) | 23 µM (inactive) | 20.3 µM (inactive) | 21 µM (inactive) | 18.1 µM (inactive) | 6.67 µM (inactive) | – | 6.87 µM (inactive) | – | – | – | – | –
NC1CCCCC1 | 135 µM (inactive) | 292 µM (inactive) | 265 µM (inactive) | 506 µM (inactive) | – | – | 164 µM (inactive) | 255 µM (inactive) | > 562 µM (inactive) | 200 µM (inactive) | 310 µM (inactive) | 489 µM (inactive) | 258 µM (inactive) | – | 347 µM (inactive) | > 562 µM (inactive) | 199 µM (inactive) | – | – | –
Cc1cc2c(ccc[n+]2[O-])[n+]([O-])c1 | > 100 µM (inactive) | > 100 µM (inactive) | > 100 µM (inactive) | – | > 100 µM (inactive) | > 100 µM (inactive) | > 100 µM (inactive) | > 100 µM (inactive) | > 100 µM (inactive) | > 100 µM (inactive) | > 100 µM (inactive) | > 100 µM (inactive) | > 100 µM (inactive) | > 100 µM (inactive) | 4.74 µM (inactive) | – | – | – | – | –
CC1[C@@H]2CC=C3C4CCC5Cc6nc7c(nc6C[C@@]5(C)C4CC(=O)[C@]32CO[C@@]1(O)C(O)CC(C)(C)O)CC1CCC2C3=C[C@H]4O[C@@]5(O[C@@](C)(CO)C[C@@H]5O)C(C)[C@@]4(O)[C@]3(C)[C@@H](O)CC2[C@]1(C)C7 (stereo partly specified) | < 0.00036 µM (active) | 0.00146 µM (active) | 0.431 µM (active) | 0.0069 µM (active) | – | 0.00622 µM (active) | 0.00201 µM (active) | 0.00381 µM (active) | 0.0166 µM (active) | 0.111 µM (active) | 0.0243 µM (active) | 0.000386 µM (active) | 0.0041 µM (active) | – | < 0.00036 µM (active) | 0.612 µM (active) | 0.0109 µM (active) | – | – | –
CC(C)(C)OC(=O)N1C2CCCC23O[C@@H]1c1cc2c(cc1C3=O)OCO2 (stereo partly specified) | 5.25 µM (inactive) | > 100 µM (inactive) | > 100 µM (inactive) | – | 54.1 µM (inactive) | 81.1 µM (inactive) | 19.5 µM (inactive) | 6.24 µM (inactive) | 25.6 µM (inactive) | 27.1 µM (inactive) | – | 43.9 µM (inactive) | 28.6 µM (inactive) | 32.1 µM (inactive) | 24.5 µM (inactive) | – | – | – | – | –
C=C1C(=O)C23C(O)CC4C(C)(C)CCC(O)C4(C)C2CC(OC(C)=O)C1[C@H]3O (stereo partly specified) | 1.26 µM (inactive) | 0.925 µM (active) | – | 0.188 µM (active) | 4.12 µM (inactive) | 9.31 µM (inactive) | 3.5 µM (inactive) | – | 3.37 µM (inactive) | 1.69 µM (inactive) | 4.06 µM (inactive) | 4.88 µM (inactive) | 2.26 µM (inactive) | 1.18 µM (inactive) | 2.62 µM (inactive) | 15.3 µM (inactive) | – | 7.87 µM (inactive) | 11.4 µM (inactive) | –
CCCCCCCCCCCCCCCC[N+](C)(C)Cc1ccc(C[N+](C)(C)CCCCCCCCCCCCCCCC)cc1 | 2.3 µM (inactive) | 2.73 µM (inactive) | 3.23 µM (inactive) | 2.74 µM (inactive) | 3.71 µM (inactive) | – | 2.02 µM (inactive) | 4.13 µM (inactive) | – | 3.48 µM (inactive) | 3.72 µM (inactive) | 3 µM (inactive) | – | 2.39 µM (inactive) | 0.923 µM (active) | – | – | – | – | –
NC(Cc1c[nH]c2ccccc12)C(=O)O (stereo not drawn) [DL-TRYPTOPHAN] | > 300 µM (inactive) | > 300 µM (inactive) | > 300 µM (inactive) | > 300 µM (inactive) | – | 30 µM (inactive) | > 300 µM (inactive) | > 300 µM (inactive) | > 300 µM (inactive) | > 300 µM (inactive) | > 300 µM (inactive) | > 300 µM (inactive) | > 300 µM (inactive) | – | > 300 µM (inactive) | > 300 µM (inactive) | > 300 µM (inactive) | – | – | –
Nc1n[nH]c(N)n1 [GUANAZOLE] | 1420 µM (inactive) | 5250 µM (inactive) | > 9120 µM (inactive) | 2960 µM (inactive) | 1890 µM (inactive) | 5860 µM (inactive) | 2510 µM (inactive) | 2620 µM (inactive) | 9100 µM (inactive) | 9840 µM (inactive) | 6900 µM (inactive) | 7350 µM (inactive) | 5190 µM (inactive) | 3300 µM (inactive) | 6820 µM (inactive) | 2580 µM (inactive) | 3400 µM (inactive) | 8570 µM (inactive) | 8510 µM (inactive) | > 9160 µM (inactive)
